Assays:
DU-145 = assay: Antiproliferative activity against human DU-145 cells assessed as reduction in cel viability after 72 hrs by MTT assay; assay type: functional, cell-based; details: DU-145, 72 h
LNCaP = assay: Antiproliferative activity against human LNCaP cells assessed as reduction in cel viability after 72 hrs by MTT assay; assay type: functional, cell-based

Row | SMILES | IC50 (DU-145) [µM] | IC50 (LNCaP) [µM]
1 | CCCC(=O)Nc1ccc2c(c1)CN1C(=S)N(c3cnc(C#N)c(C(F)(F)F)c3)C(=O)C1C2 (centres undefined) | > 100 | 34.2
2 | CC(=O)Nc1ccc2c(c1)CCC1C(=O)N(c3cnc(C#N)c(C(F)(F)F)c3)C(=S)N21 (centres undefined) | > 100 | 41.2
3 | CCOC(=O)Nc1ccc2c(c1)CN1C(=S)N(c3cnc(C#N)c(C(F)(F)F)c3)C(=O)C1C2 (centres undefined) | > 100 | 12.2
4 | CCOC(=O)Nc1ccc2c(c1)CCC1C(=O)N(c3cnc(C#N)c(C(F)(F)F)c3)C(=S)N21 (centres undefined) | > 100 | 23.7
5 | CC(=O)Nc1ccc2c(c1)CN1C(=S)N(c3cnc(C#N)c(C(F)(F)F)c3)C(=O)C1C2 (centres undefined) | 54.1 | 23.1
6 | CCCC(=O)Nc1cc2c(cc1F)CC1C(=O)N(c3cnc(C#N)c(C(F)(F)F)c3)C(=S)N1C2 (centres undefined) | > 100 | 27.9
7 | CCCCS(=O)(=O)Nc1cc2c(cc1F)CC1C(=O)N(c3cnc(C#N)c(C(F)(F)F)c3)C(=S)N1C2 (centres undefined) | > 100 | 102
8 | CNC(=O)c1ccc2c(c1)CN1C(=S)N(c3cnc(C#N)c(C(F)(F)F)c3)C(=O)C1C2 (centres undefined) | 83.6 | 36.7
9 | CS(=O)(=O)Nc1cc2c(cc1F)CC1C(=O)N(c3cnc(C#N)c(C(F)(F)F)c3)C(=S)N1C2 (centres undefined) | > 100 | 79
10 | N#Cc1ncc(N2C(=O)C3Cc4cc(F)c(N)cc4CN3C2=S)cc1C(F)(F)F (centres undefined) | > 100 | 32.1
11 | N#Cc1ncc(N2C(=O)C3Cc4ccc(C(=O)NC5CCCCC5)cc4CN3C2=S)cc1C(F)(F)F (centres undefined) | 92.4 | 72.3
12 | CCC(=O)Nc1cc2c(cc1F)CC1C(=O)N(c3cnc(C#N)c(C(F)(F)F)c3)C(=S)N1C2 (centres undefined) | > 100 | 27.7
13 | CCOC(=O)Nc1ccc2c(c1)N1C(=S)N(c3cnc(C#N)c(C(F)(F)F)c3)C(=O)C1CC2 (centres undefined) | 90.3 | 35.7
14 | CCCC(=O)Nc1ccc2c(c1)CCC1C(=O)N(c3cnc(C#N)c(C(F)(F)F)c3)C(=S)N21 (centres undefined) | 89.7 | 32.5
15 | N#Cc1ncc(N2C(=O)C3Cc4ccc(N)cc4CN3C2=S)cc1C(F)(F)F (centres undefined) | > 100 | 44.7
16 | CCCNC(=O)c1cc2c(cc1F)CC1C(=O)N(c3cnc(C#N)c(C(F)(F)F)c3)C(=S)N1C2 (centres undefined) | 92.5 | 20.1
17 | N#Cc1ncc(N2C(=O)C3Cc4ccc(C(=O)NCCO)cc4CN3C2=S)cc1C(F)(F)F (centres undefined) | 83.9 | 29.1
18 | CCCCNC(=O)c1ccc2c(c1)CN1C(=S)N(c3cnc(C#N)c(C(F)(F)F)c3)C(=O)C1C2 (centres undefined) | 89.4 | 11.6
19 | CCCC(=O)Nc1ccc2c(c1)N1C(=S)N(c3cnc(C#N)c(C(F)(F)F)c3)C(=O)C1CC2 (centres undefined) | 97.8 | 46
20 | CCNC(=O)c1cc2c(cc1F)CC1C(=O)N(c3cnc(C#N)c(C(F)(F)F)c3)C(=S)N1C2 (centres undefined) | 91.4 | 32.3
21 | N#Cc1ncc(N2C(=O)C3Cc4cc(F)c(C(=O)NC5CCCCC5)cc4CN3C2=S)cc1C(F)(F)F (centres undefined) | 67.6 | 84.7
22 | CS(=O)(=O)Nc1ccc2c(c1)CCC1C(=O)N(c3cnc(C#N)c(C(F)(F)F)c3)C(=S)N21 (centres undefined) | > 100 | > 100
23 | COC(=O)c1ccc2c(c1)CN1C(=S)N(c3cnc(C#N)c(C(F)(F)F)c3)C(=O)C1C2 (centres undefined) | 75.5 | 58.4
24 | CC(=O)Nc1ccc2c(c1)N1C(=S)N(c3cnc(C#N)c(C(F)(F)F)c3)C(=O)C1CC2 (centres undefined) | > 100 | 89.7
25 | CNC(=O)c1cc2c(cc1F)CC1C(=O)N(c3cnc(C#N)c(C(F)(F)F)c3)C(=S)N1C2 (centres undefined) | 67.4 | 43.8
26 | CCCCS(=O)(=O)Nc1ccc2c(c1)CCC1C(=O)N(c3cnc(C#N)c(C(F)(F)F)c3)C(=S)N21 (centres undefined) | 90.1 | 54.7

Row | SMILES | IC50 (DU-145) [µM] | IC50 (LNCaP) [µM]
27 | N#Cc1ncc(N2C(=O)C3Cc4cc(F)c([N+](=O)[O-])cc4CN3C2=S)cc1C(F)(F)F (centres undefined) | 83.4 | 29
28 | COc1c(Br)cc2c(c1Br)CN1C(=S)N(c3cnc(C#N)c(C(F)(F)F)c3)C(=O)C1C2 (centres undefined) | 96.3 | 85.9
29 | N#Cc1ncc(N2C(=O)C3Cc4ccccc4CN3C2=S)cc1C(F)(F)F (centres undefined) | > 100 | 21.6
30 | CC(CO)NC(=O)c1ccc2c(c1)CN1C(=S)N(c3cnc(C#N)c(C(F)(F)F)c3)C(=O)C1C2 (centres undefined) | 88 | 44.9
31 | COc1ccc2c(c1)CN1C(=S)N(c3cnc(C#N)c(C(F)(F)F)c3)C(=O)C1C2 (centres undefined) | > 100 | 25.9
32 | COC(=O)c1cc2c(cc1F)CC1C(=O)N(c3cnc(C#N)c(C(F)(F)F)c3)C(=S)N1C2 (centres undefined) | 86.2 | 55.5
33 | CC(O)CNC(=O)c1cc2c(cc1F)CC1C(=O)N(c3cnc(C#N)c(C(F)(F)F)c3)C(=S)N1C2 (centres undefined) | 72.2 | 47.5
34 | CCCCS(=O)(=O)Nc1ccc2c(c1)CN1C(=S)N(c3cnc(C#N)c(C(F)(F)F)c3)C(=O)C1C2 (centres undefined) | 84.4 | 84.1
35 | CCCCNC(=O)c1cc2c(cc1F)CC1C(=O)N(c3cnc(C#N)c(C(F)(F)F)c3)C(=S)N1C2 (centres undefined) | 93.8 | 16.3
36 | CC(CO)NC(=O)c1cc2c(cc1F)CC1C(=O)N(c3cnc(C#N)c(C(F)(F)F)c3)C(=S)N1C2 (centres undefined) | 71.3 | 34.2
37 | CCOC(=O)CCCOc1ccc2c(c1)CN1C(=S)N(c3cnc(C#N)c(C(F)(F)F)c3)C(=O)C1C2 (centres undefined) | > 100 | 17
38 | CCCCOc1ccc2c(c1)CN1C(=S)N(c3cnc(C#N)c(C(F)(F)F)c3)C(=O)C1C2 (centres undefined) | > 100 | 20
39 | CS(=O)(=O)Nc1ccc2c(c1)CN1C(=S)N(c3cnc(C#N)c(C(F)(F)F)c3)C(=O)C1C2 (centres undefined) | > 100 | 90.2
40 | CCCNC(=O)c1ccc2c(c1)CN1C(=S)N(c3cnc(C#N)c(C(F)(F)F)c3)C(=O)C1C2 (centres undefined) | 90.4 | 18.1
41 | CS(=O)(=O)Nc1ccc2c(c1)N1C(=S)N(c3cnc(C#N)c(C(F)(F)F)c3)C(=O)C1CC2 (centres undefined) | > 100 | > 100
42 | CCNC(=O)c1ccc2c(c1)CN1C(=S)N(c3cnc(C#N)c(C(F)(F)F)c3)C(=O)C1C2 (centres undefined) | 53.2 | 29.3
43 | CCC(=O)Nc1ccc2c(c1)N1C(=S)N(c3cnc(C#N)c(C(F)(F)F)c3)C(=O)C1CC2 (centres undefined) | > 100 | 48.8
44 | N#Cc1ncc(N2C(=O)C3Cc4ccc(C(=O)O)cc4CN3C2=S)cc1C(F)(F)F (centres undefined) | > 100 | > 100
45 | CCCCS(=O)(=O)Nc1ccc2c(c1)N1C(=S)N(c3cnc(C#N)c(C(F)(F)F)c3)C(=O)C1CC2 (centres undefined) | 83.9 | 48.7
46 | N#Cc1ncc(N2C(=O)C3Cc4cc(Br)c(O)c(Br)c4CN3C2=S)cc1C(F)(F)F (centres undefined) | 81.1 | 60.4
47 | CCOc1ccc2c(c1)CN1C(=S)N(c3cnc(C#N)c(C(F)(F)F)c3)C(=O)C1C2 (centres undefined) | 91.7 | 65.9
48 | N#Cc1ncc(N2C(=O)C3Cc4cc(F)c(C(=O)O)cc4CN3C2=S)cc1C(F)(F)F (centres undefined) | > 100 | > 100
49 | CCC(=O)Nc1ccc2c(c1)CCC1C(=O)N(c3cnc(C#N)c(C(F)(F)F)c3)C(=S)N21 (centres undefined) | > 100 | 39.9
50 | N#Cc1ncc(N2C(=O)C3Cc4ccc([N+](=O)[O-])cc4CN3C2=S)cc1C(F)(F)F (centres undefined) | > 100 | 75.7
51 | CC(=O)Nc1cc2c(cc1F)CC1C(=O)N(c3cnc(C#N)c(C(F)(F)F)c3)C(=S)N1C2 (centres undefined) | > 100 | 28.3
52 | CCC(=O)Nc1ccc2c(c1)CN1C(=S)N(c3cnc(C#N)c(C(F)(F)F)c3)C(=O)C1C2 (centres undefined) | 81.1 | 22.9

Source: ChEMBL document CHEMBL4680224, “Discovery of pyridine tetrahydroisoquinoline thiohydantoin derivatives with low blood-brain barrier penetration as the androgen receptor antagonists” (Eur J Med Chem, 2020)
